Results from PubChem BioAssay (NCI).
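Cells were grown in 96-well plates and exposed to each compound for 48 hours at five concentrations; endpoints were interpolated linearly between bracketing concentrations, or set to the highest concentration if not reached. The concentration for 50% growth inhibition is given as GI50. TGI marks complete inhibition of growth.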

How the values were obtained:
Assay in all cases: DTP human tumour cell line panel, 48 h
PC-3 prostate = system: PC-3 prostate
UACC-257 melanoma = system: UACC-257 melanoma
K-562 leukemia = system: K-562 leukemia
NCI-H522 lung = system: NCI-H522 lung
LOX IMVI melanoma = system: LOX IMVI melanoma
HCC-2998 colon = system: HCC-2998 colon
DU-145 prostate = system: DU-145 prostate
SK-OV-3 ovarian = system: SK-OV-3 ovarian
ACHN renal = system: ACHN renal
UO-31 renal = system: UO-31 renal
OVCAR-8 ovarian = system: OVCAR-8 ovarian
OVCAR-5 ovarian = system: OVCAR-5 ovarian
HS 578T breast = system: HS 578T breast
SN12C renal = system: SN12C renal
A549 NSCLC = system: A549 NSCLC
SW-620 colon = system: SW-620 colon
U251 CNS = system: U251 CNS
MALME-3M melanoma = system: MALME-3M melanoma
KM12 colon = system: KM12 colon
SNB-19 CNS = system: SNB-19 CNS
OVCAR-4 ovarian = system: OVCAR-4 ovarian
MCF7 breast = system: MCF7 breast
MDA-MB-435 = system: MDA-MB-435
EKVX NSCLC = system: EKVX NSCLC
SF-295 CNS = system: SF-295 CNS
UACC-62 melanoma = system: UACC-62 melanoma
CCRF-CEM leukemia = system: CCRF-CEM leukemia

With `Nc1ccn(C=C=CCO)c(=O)n1` the GI50 (PC-3 prostate) was > 1000 µM, the TGI (PC-3 prostate) was > 1000 µM and the GI50 (UACC-257 melanoma) was > 1000 µM. The TGI (UACC-257 melanoma) was > 1000 µM, the GI50 (K-562 leukemia) was > 1000 µM and the TGI (K-562 leukemia) was > 1000 µM. For the same molecule, the GI50 (NCI-H522 lung) was > 1000 µM, the TGI (NCI-H522 lung) was > 1000 µM and the GI50 (LOX IMVI melanoma) was > 1000 µM. For the same molecule, the TGI (LOX IMVI melanoma) was > 1000 µM, the GI50 (HCC-2998 colon) was > 1000 µM and the TGI (HCC-2998 colon) was > 1000 µM. For the same molecule, the GI50 (DU-145 prostate) was > 1000 µM, the TGI (DU-145 prostate) was > 1000 µM and the GI50 (SK-OV-3 ovarian) was > 1000 µM. For the same molecule, the TGI (SK-OV-3 ovarian) was > 1000 µM, the GI50 (ACHN renal) was > 1000 µM and the TGI (ACHN renal) was > 1000 µM. For the same molecule, the GI50 (UO-31 renal) was > 1000 µM, the TGI (UO-31 renal) was > 1000 µM and the TGI (OVCAR-8 ovarian) was > 1000 µM. The GI50 (OVCAR-5 ovarian) was > 1000 µM, the TGI (OVCAR-5 ovarian) was > 1000 µM and the GI50 (HS 578T breast) was > 1000 µM. The TGI (HS 578T breast) was > 1000 µM, the GI50 (SN12C renal) was > 1000 µM and the TGI (SN12C renal) was > 1000 µM. For the same molecule, the GI50 (A549 NSCLC) was > 1000 µM, the TGI (A549 NSCLC) was > 1000 µM and the GI50 (SW-620 colon) was > 1000 µM. For the same molecule, the TGI (SW-620 colon) was > 1000 µM, the GI50 (U251 CNS) was > 1000 µM and the TGI (U251 CNS) was > 1000 µM. For the same molecule, the GI50 (MALME-3M melanoma) was > 1000 µM, the TGI (MALME-3M melanoma) was > 1000 µM and the GI50 (KM12 colon) was > 1000 µM. The TGI (KM12 colon) was > 1000 µM, the GI50 (SNB-19 CNS) was > 1000 µM and the TGI (SNB-19 CNS) was > 1000 µM. For the same molecule, the GI50 (OVCAR-4 ovarian) was > 1000 µM, the TGI (OVCAR-4 ovarian) was > 1000 µM and the GI50 (MCF7 breast) was > 1000 µM. The TGI (MCF7 breast) was > 1000 µM, the GI50 (MDA-MB-435) was > 1000 µM and the TGI (MDA-MB-435) was > 1000 µM. For the same molecule, the GI50 (EKVX NSCLC) was > 1000 µM, the TGI (EKVX NSCLC) was > 1000 µM and the GI50 (SF-295 CNS) was > 1000 µM. For the same molecule, the TGI (SF-295 CNS) was > 1000 µM, the GI50 (UACC-62 melanoma) was > 1000 µM and the TGI (UACC-62 melanoma) was > 1000 µM. The TGI (CCRF-CEM leukemia) was > 1000 µM.
